Assay [1] concerns MX1. Briefly: Induction of apoptosis in human MX1 cells assessed as viable cells measured at 1 uM after 48 hrs by FITC-Annexin-V and propidium iodide based flow cytometric analysis (reference value: 88.4%). To be noted: read-out: Activity. The assay is classed as functional.
In assay [2] the test system is MX1. Briefly: Induction of apoptosis in human MX1 cells assessed as downregulation of Bcl-2 by Western blotting analysis. In kind it is functional, cell-based. Particulars: dose 0.5-2 µM.
Assay [3] has as its system MX1. The assay is described as follows: Induction of apoptosis in human MX1 cells assessed as late apoptotic cells measured at 0.5 uM after 48 hrs by FITC-Annexin-V and propidium iodide based flow cytometric analysis (reference value: 5.24%). The assay is classed as functional.
The subject of the next assay is MDA-MB-231. The assay is described as follows: Antitumor activity against human MDA-MB-231 cells xenografted in BALBC mouse assessed as inhibition of tumor growth at 75 mg/kg, IG administered every 3 days for 21 days relative to control. The assay is classed as functional. Particulars: MDA-MB-231, po, 504 h, time 21 day, read-out: TGI.
Assay [4] relates to MX1. Briefly: Induction of apoptosis in human MX1 cells assessed as necrotic cells measured at 2 uM after 48 hrs by FITC-Annexin-V and propidium iodide based flow cytometric analysis (reference value: 0.055 %). The assay is classed as functional.
Assay [5] deals with MX1. The assay is described as follows: Induction of apoptosis in human MX1 cells assessed as necrotic cells measured at 0.5 uM after 48 hrs by FITC-Annexin-V and propidium iodide based flow cytometric analysis (reference value: 0.055 %). The assay is classed as functional.
Assay [6] has as its system MX1. The assay is described as follows: Induction of apoptosis in human MX1 cells assessed as late apoptotic cells measured at 5 uM after 48 hrs by FITC-Annexin-V and propidium iodide based flow cytometric analysis (reference value: 5.24%). The assay is classed as functional.

With `CC1(C)C=Cc2c(c(/C=C/C(=O)NCCOc3no[n+]([O-])c3S(=O)(=O)c3ccccc3)cc3c2[nH]c2ccc(C(C)(C)C)cc23)O1`, the viability at 1 µM with MX1 [1] turned out to be 43.5%. Further, the Activity result was “Dose-Dependent Effect” in the assay with MX1 [2]; 5.2% with MX1 [3]; 0.043% in the assay with MX1 [4]; 0.202% in the assay on MX1 [5]; 14.5% in the assay with MX1 [6]. The inhibition in vivo at 75 mg/kg with MDA-MB-231 was found to be 30%.

Source of the values: ChEMBL document CHEMBL5247609, “Novel nitric oxide-releasing derivatives of pyranocarbazole as antitumor agents: Design, synthesis, biological evaluation, and nitric oxide release studies” (Eur J Med Chem, 2022).
